According to paper PMC12752606, “METTL10‐Mediated PIAS3 Methylation Links Purine Metabolism to Gastric Cancer Progression” (Advanced Science, 2025):

Key:
[1] = tested on: purine nucleotides in MKN45 and AGS cells; assay: Purine metabolite levels by LC-MS; format: cell-based; details: 20 µM
Procedure: Cells were collected and transferred to centrifuge tubes, followed by three washes with cold PBS. The samples were then resuspended in an extraction solution (methanol: acetonitrile: water = 2:2:1, v/v/v, 1 mL) and vortexed for 30 s. The suspension underwent ice bath sonication for 10 min and frozen and thawed in liquid nitrogen for repeated three times. To fully precipitate proteins, the samples were incubated at −20 °C for 1 h. Subsequently, the cell lysates were centrifuged at 13000 rpm for 15 min at 4 °C. The supernatant was then lyophilized using a low‐temperature vacuum centrifugal concentrator and analyzed by LC‐MS using the AB SCIEX QTRAP 6500^+ system.

[2] = target: T1, GFP-tagged METTL10 protein (Homo sapiens, UniProt Q5JPI9); assay: Microscale thermophoresis (MST); format: binding; details: lysate of HEK293T cells expressing GFP-METTL10, read-out: Dissociation constant (KD)
T1 construct: host or cells: HEK293T
T1 sequence (Q5JPI9 1-291 isoform Q5JPI9-1): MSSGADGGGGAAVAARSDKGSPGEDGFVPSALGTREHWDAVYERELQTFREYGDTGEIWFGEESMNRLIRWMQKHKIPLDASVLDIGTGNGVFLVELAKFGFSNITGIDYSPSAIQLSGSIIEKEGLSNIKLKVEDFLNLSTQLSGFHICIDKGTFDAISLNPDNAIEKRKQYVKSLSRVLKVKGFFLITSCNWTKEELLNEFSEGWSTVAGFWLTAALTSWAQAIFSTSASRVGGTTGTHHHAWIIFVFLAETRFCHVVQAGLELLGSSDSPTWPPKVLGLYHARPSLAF
Procedure: Microscale thermophoresis (MST) assays were conducted following the protocol.^[ [49] ^] Briefly, HEK293T cells were transfected with either the pEGFP‐N1‐METTL10 plasmid or the control pEGFP‐N1‐Vector plasmid for 24 h. Subsequently, protein lysates were obtained through ultrasonic disruption at 4 °C. Aliquots of the lysate were then incubated with serially diluted ligands at 37 °C for 30 min. Fluorescence signals were measured, and dissociation constants (Kd) were determined using the NanoTemper Monolith Pico.

ATK orthotopic tumors = assay: Orthotopic ATK cell gastric cancer allograft model with flow cytometry of tumor-infiltrating cells; format: in vivo, C57BL/6 mice
Procedure: Orthotopic gastric cancer models were established by surgically implanting 1 × 10⁶ METTL10‐overexpressing or vector control ATK cells into the gastric subserosal layer of C57BL/6 mice under aseptic conditions. Tumor tissues were harvested 20 days post‐implantation for subsequent analyses. In a separate cohort, mice bearing orthotopic tumors (1 × 10⁶ cells implanted) received subcutaneous administration of LZQ‐02‐023‐01 at a dose of 40 mg/kg/day, starting 7 days after tumor implantation. The treatment continued daily for 14 consecutive days. Tumor burden and therapeutic response were assessed at the end of the treatment period by excision and analysis of gastric tumors.
Tumor tissues were finely minced into approximately 1 mm^3 pieces and enzymatically digested in Hank's Balanced Salt Solution (HBSS) containing type IV collagenase (2357210, Gibco) at 37 °C for 1 h. The resulting cell suspensions were gently triturated and passed through an 80 µm cell strainer (22131209, Biosharp) to remove debris. Red blood cells were lysed using ACK lysis buffer (R1010, Solarbio) to yield a single‐cell suspension. Cells were subsequently stained with a cocktail of fluorochrome‐conjugated antibodies (1:200 dilution; details listed in Table S6, Supporting Information) and a fixable viability dye (1:200, 2365395, Invitrogen) for 30 min at 4 °C in the dark. After washing, the stained cells were analyzed using a Sony ID7000 spectral flow cytometer (Sony Biotechnology).
Paraffin sections were initially placed in an oven at 65 °C for 30 min to melt the paraffin. The slides were then immersed in two consecutive xylene baths for 10 min each to dewax the tissue, followed by hydration through a series of graded ethanol solutions. The sections were stained with hematoxylin for 10 min. After differentiation with 1% hydrochloric acid alcohol, the sections were blued with lithium carbonate and counterstained with eosin for 3 min. The slides were then dehydrated in graded ethanol and mounted with neutral resin. All pathological results were performed in a blinded manner by experienced gastrointestinal pathologists. For IHC staining, sections were processed in accordance with the manufacturer's protocol (MXB Biotechnologies). Briefly, antigen retrieval was conducted at 37 °C for 30 min, followed by blocking at room temperature for 10 min. The sections were subsequently incubated with the appropriate primary antibody overnight at 4 °C. The following day, biotin‐conjugated secondary antibodies were applied and incubated for 1 h, followed by streptavidin‐peroxidase incubation for 10 min. Diaminobenzidine (DAB) was employed as the chromogen for visualization, and hematoxylin was used for counterstaining. Imaging was performed using the Olympus VS200 microscope.

MKN45 xenografts = assay: MKN45 subcutaneous xenograft model; format: in vivo, BALB/c nude mice; details: 20 or 40 mg/kg i.p. once daily for 2 weeks
Procedure: For the subcutaneous tumor model, 5 × 10⁶ MKN45 cells suspended in 100 µL of sterile PBS were injected subcutaneously into the flanks of BALB/c nude mice. When tumor volumes reached approximately 50 mm^3, mice were randomized into three groups (Vehicle control, LZQ‐02‐023‐01 at 20 mg/kg or 40 mg/kg, n = 10 per group). All treatments were administered via intraperitoneal injection once daily for 14 consecutive days. Tumor volumes were measured every 2 days using calipers and calculated using the formula: volume = [length × (width[2])]/2. Mice were sacrificed on day 24 for endpoint analyses. For genetically engineered mouse models (GEMMs), 25‐week‐old K19‐C2mE mice were randomized into Vehicle control (n = 8) and LZQ‐02‐023‐01 treatment (40 mg/kg, n = 8) groups. Both groups received daily intraperitoneal injections for 28 consecutive days. Similarly, 8‐week‐old Cldn18‐AT mice were induced with tamoxifen (100 mg/kg, T5648, Sigma) and, 2 weeks post‐induction, randomized into Vehicle (n = 6) and LZQ‐02‐023‐01 (40 mg/kg, n = 6) treatment groups. Treatments were administered daily via intraperitoneal injection for 28 days.
Paraffin sections were initially placed in an oven at 65 °C for 30 min to melt the paraffin. The slides were then immersed in two consecutive xylene baths for 10 min each to dewax the tissue, followed by hydration through a series of graded ethanol solutions. […]

[3] = tested on: Flag-METTL10 protein in HEK293T cells; assay: Cycloheximide chase assay of Flag-METTL10 stability; format: cell-based; details: 20 µM
SETD2 = SETD2 (Homo sapiens, UniProt Q9BYW2); assay: Off-target methyltransferase profiling (MTase-Glo); format: biochemical
Procedure: (§1) To evaluate the off‐target effects of LZQ‐02‐023‐01 on methyltransferase activity, a panel of enzymes was assessed using the MTase‐Glo Methyltransferase Assay (Promega), following the manufacturer's instructions. The assay was performed by ICE Bioscience Inc. Briefly, LZQ‐02‐023‐01 was serially diluted 4‐fold in DMSO to generate a 10‐point concentration gradient, and the resulting solutions were dispensed into 384‐well white assay plates using an Echo acoustic liquid handler (Labcyte). Plates were centrifuged at 1000 rpm for 1 min to ensure even compound distribution. Following a 10‐min preincubation at 25 °C, 2 µL of a substrate solution containing S‐adenosylmethionine (SAM) and the specific methyltransferase substrate (Table S7, Supporting Information) was added to each well. After a brief centrifugation, plates were incubated at 25 °C for 180 min to allow the enzymatic methylation reaction to proceed. Subsequently, 1 µL of MTase‐Glo reagent was added, followed by centrifugation and incubation at 25 °C for 45 min. Then, 5 µL of MTase‐Glo detection solution was introduced into each well, and the plates were incubated for an additional 45 min at 25 °C after centrifugation.
(§2) Luminescence signals were directly proportional to methyltransferase activity, were recorded using a microplate reader (BMG LABTECH). Percent inhibition was calculated by normalizing luminescence intensities of compound‐treated wells to DMSO‐treated controls, and IC50 values were calculated using GraphPad Prism 8 software.

NSD1 = NSD1 (Homo sapiens, UniProt Q96L73); assay: Off-target methyltransferase profiling (MTase-Glo); format: biochemical
Sequence of NSD1 (Q96L73 whole entry, species assumed): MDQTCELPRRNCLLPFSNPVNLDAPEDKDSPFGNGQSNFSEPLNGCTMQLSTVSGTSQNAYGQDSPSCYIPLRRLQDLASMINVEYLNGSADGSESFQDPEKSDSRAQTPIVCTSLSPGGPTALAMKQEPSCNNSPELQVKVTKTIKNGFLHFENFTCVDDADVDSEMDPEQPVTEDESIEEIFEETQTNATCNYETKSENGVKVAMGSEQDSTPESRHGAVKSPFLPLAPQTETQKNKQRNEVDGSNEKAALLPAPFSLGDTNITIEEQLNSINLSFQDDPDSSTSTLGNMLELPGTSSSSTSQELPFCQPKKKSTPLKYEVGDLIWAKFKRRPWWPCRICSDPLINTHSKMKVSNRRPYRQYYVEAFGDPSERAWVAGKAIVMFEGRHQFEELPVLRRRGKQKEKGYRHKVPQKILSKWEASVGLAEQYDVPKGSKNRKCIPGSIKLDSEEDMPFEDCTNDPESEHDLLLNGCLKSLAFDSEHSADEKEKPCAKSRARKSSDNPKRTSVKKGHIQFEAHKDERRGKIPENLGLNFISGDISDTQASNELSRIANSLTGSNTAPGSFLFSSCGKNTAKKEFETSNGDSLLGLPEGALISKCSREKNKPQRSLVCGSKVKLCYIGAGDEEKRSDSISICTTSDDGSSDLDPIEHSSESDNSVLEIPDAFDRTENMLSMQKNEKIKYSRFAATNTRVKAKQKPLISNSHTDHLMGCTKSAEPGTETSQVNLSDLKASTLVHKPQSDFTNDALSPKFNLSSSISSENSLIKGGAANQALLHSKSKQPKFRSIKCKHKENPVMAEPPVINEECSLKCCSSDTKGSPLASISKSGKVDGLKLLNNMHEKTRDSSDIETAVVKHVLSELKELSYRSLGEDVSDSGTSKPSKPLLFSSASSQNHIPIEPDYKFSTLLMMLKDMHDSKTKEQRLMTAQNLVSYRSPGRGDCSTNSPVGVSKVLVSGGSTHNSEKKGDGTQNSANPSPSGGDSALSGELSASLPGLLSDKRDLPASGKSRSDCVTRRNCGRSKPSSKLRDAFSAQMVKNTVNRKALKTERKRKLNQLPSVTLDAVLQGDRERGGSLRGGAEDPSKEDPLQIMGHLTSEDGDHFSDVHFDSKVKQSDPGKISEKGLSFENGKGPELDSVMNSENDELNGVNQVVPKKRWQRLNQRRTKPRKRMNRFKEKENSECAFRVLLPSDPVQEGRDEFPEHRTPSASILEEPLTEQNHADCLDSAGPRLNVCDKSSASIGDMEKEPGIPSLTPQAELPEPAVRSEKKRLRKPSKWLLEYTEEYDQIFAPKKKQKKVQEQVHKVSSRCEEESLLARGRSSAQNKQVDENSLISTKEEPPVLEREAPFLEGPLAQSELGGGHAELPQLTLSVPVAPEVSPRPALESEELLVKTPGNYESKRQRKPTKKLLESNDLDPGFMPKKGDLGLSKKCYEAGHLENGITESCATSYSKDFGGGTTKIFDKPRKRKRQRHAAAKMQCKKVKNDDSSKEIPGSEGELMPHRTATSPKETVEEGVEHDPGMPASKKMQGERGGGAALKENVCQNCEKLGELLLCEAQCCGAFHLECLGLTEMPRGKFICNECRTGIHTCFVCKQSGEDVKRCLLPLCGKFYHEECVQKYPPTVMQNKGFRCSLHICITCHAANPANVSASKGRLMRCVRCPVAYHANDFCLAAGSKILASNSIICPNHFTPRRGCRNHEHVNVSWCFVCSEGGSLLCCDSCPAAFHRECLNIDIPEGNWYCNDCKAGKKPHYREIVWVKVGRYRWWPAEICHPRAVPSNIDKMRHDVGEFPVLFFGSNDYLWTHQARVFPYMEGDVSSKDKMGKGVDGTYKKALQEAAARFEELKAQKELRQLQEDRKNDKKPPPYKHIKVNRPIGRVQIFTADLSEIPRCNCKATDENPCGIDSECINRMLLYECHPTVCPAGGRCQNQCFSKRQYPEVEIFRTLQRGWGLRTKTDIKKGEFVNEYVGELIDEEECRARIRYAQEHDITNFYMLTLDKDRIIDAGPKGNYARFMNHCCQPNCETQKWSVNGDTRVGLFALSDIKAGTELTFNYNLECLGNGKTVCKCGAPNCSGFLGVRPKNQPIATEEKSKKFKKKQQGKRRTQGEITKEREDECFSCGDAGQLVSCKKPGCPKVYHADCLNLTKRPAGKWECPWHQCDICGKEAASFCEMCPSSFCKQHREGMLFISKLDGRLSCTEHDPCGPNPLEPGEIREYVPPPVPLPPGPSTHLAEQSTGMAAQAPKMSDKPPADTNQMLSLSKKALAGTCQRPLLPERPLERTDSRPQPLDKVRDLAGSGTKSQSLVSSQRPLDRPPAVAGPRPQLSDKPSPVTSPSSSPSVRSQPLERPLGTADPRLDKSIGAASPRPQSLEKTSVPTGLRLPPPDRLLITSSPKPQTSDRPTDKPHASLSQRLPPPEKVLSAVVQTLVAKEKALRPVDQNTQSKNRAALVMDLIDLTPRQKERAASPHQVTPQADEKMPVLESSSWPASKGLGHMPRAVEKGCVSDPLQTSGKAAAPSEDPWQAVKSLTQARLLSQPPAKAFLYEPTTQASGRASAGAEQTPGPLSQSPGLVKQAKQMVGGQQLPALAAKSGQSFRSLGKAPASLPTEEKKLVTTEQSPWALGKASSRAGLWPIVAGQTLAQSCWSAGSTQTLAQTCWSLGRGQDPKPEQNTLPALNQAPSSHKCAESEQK
Procedure: as §1, §2

[4] = 40 mg/kg/day for 14 days, flow cytometry

Q: What does the source list for `Cc1ccc(Nc2ncc3c(n2)N(C)C(=O)N(c2cccc(N)c2)C3)cn1` [LZQ-02-023-01, Three‐(3‐aminophenyl)‐1‐methyl‐7‐((6‐methylpyridin‐3‐yl)amino)‐3,4‐dihydropyrimido [4,5‐d] pyrimidin‐2 (1H)‐one]?
A: Levels of purine nucleotides [1]: decreased; Kd [2]: 4.47 µM; Tumor burden (ATK orthotopic tumors; 40 mg/kg/day for 14 consecutive days, ATK orthotopic model, vs vehicle): significant reduction in tumor burden; Proliferative activity (Ki-67 expression) of tumors (ATK orthotopic tumors; 40 mg/kg/day for 14 days): reduced proliferative activity; Tumor-infiltrating B cells (ATK orthotopic tumors; [4]): modest decrease; Tumor-infiltrating T lymphocytes (CD4+ and CD8+) (ATK orthotopic tumors; [4]): moderate increase; Growth of xenografts derived from MKN45 cells (MKN45 xenografts): significant reduction; Ki-67 expression, PIAS3-K442 methylation and MITF in xenografts (MKN45 xenografts): significantly decreased; Half-life of METTL10 protein [3]: remained unchanged; IC50 (SETD2): 18.6 µM; IC50 (NSD1): 13.3 µM
